Assay results published in patent US6372727B1, “Metalloporphyrin treatment of neurologic disease” (UAB Research Foundation, priority 1999, dated 2002).

How the values were obtained:
[1] = Peroxynitrite-mediated nitration of GYA peptide; assay type: biochemical; details: percent of added peroxynitrite
[2] = system: cultured motor neurons; experiment: Protection of cultured motor neurons from growth factor withdrawal; assay type: cell-based
Experimental: Culture Motor neurons were prepared from embryonic day 15 (E15) rat spinal cords by a combination of metrizamide gradient centrifugation and immunopanning with the monoclonal antibody IgG192 (Chandler et al., J. Biol. Chem. 259:6882-6889, 1984) as previously described (Estevez et al., J Neurosci 18:923-931, 1998; Henderson C E, Bloch-Gallego E, Camu W (1995): Purification and culture of embryonic motorneurons. In Cohen J, Wilkin G (eds): Neural Cell Culture: A Practical Approach. Oxford, England: IRL Press, pp 69-81). Long-term cultures of motor neurons were performed as described by Pennica et al. (Pennica et al., Neuron 17:63-74, 1996). Briefly, motor neurons were plated at a density of 200 cells/cm2 on 35 mm dishes precoated with polyornithine-laminin in Neurobasal medium supplemented with B27 (Life Technologies, Grand Island, N.Y.), 2% horse serum, 0.5 mM L-glutamine, 25 μM 2-mercaptoethanol and 25 μM L-glutamate. Every 3-4 days ¾ of the culture medium was replaced by fresh medium lacking L-glutamate and containing sufficient quantities of BDNF or FeTCPP to supplement the 2 ml of medium in the dish. More than 94% of the cells were immunoreactive for the p75 low-affinity neurotrophic receptor (p75NTR) and Islet ½, which are markers for motor neurons. The experiments were repeated at least 2 times using the same lot of Neurobasal medium and B 27 supplement.
The number of motor neurons with neurites longer than 4 soma diameters present in parallel cultures treated with BDNF at a final concentration of 100 pg/ml 24 h after plating or culture media replacement was considered 100% motor neuron survival. FeTCPP was resuspended in complete Neurobasal medium at a 5 mM concentration. Dilutions were performed of the stock solution to add 20 μl per dish.
Rat motor neurons survive many days in culture when brain-derived neurotrophic factor (BDNF) is added to the culture media. Because motor neurons are the cells that preferentially die in ALS, primary cultures of motor neurons represent the best non-animal model of ALS. Withdrawal of BDNF results in apoptotic death of >70% of motor neurons within 24 h. Cell death was correlated with expression of the neuronal form of nitric oxide synthase (nNOS) and the production of peroxynitrite, as evidenced by protein tyrosine nitration. When FeTCPP is added to the culture media in place of BDNF and motor neuron survival is assessed at 24 h, some protection is seen at concentrations as low as 0.01 μM (FIG. 10A). […] Additionally, a comparison of the effect of FETCPP and its tetra-methyl ester derivative, TMeO-FeTCPP, on motor neuron survival at 72 hr.

[3] = MP-catalyzed nitration of HPA: effect of pH, reductants and serum; assay type: biochemical
Experimental: Single additions of 100 μM peroxynitrite were made to reactions containing ascorbate or GSH. Three sequential additions of 100 μM peroxynitrite were made to all other reactions.
This level of bicarbonate results in rapid saturation of the solution with carbon dioxide (˜1 mM). Solutions were placed into a rapidly stirred cuvette and nine bolus additions (50 μM×3, 100 μM×3, and 200 μM×3) of peroxynitrite were made sequentially while the absorbance was monitored. Increasing amounts of peroxynitrite were added in a sequential manner in order to determine whether nitration efficiency varied with concentration and to determine whether nitration catalysis was maintained with multiple additions (see FIG. 6 inset). Nitration efficiency was defined as the amount of nitropeptide formed per amount of peroxynitrite added and was calculated for each peroxynitrite addition; the values shown are the average of all nine peroxynitrite additions. The absorbance changes associated with nitrotyrosine peptide production were monitored simultaneously at 380, 430, and 460 nm. The extinction coefficients for nitrated GYA at pH 7.4 are 4,400 M^−1cm^−1 at 430 nm and 2,200 M^−1cm^−1 at both 380 and 460 nm. […] Wavelengths used to quantify nitrotyrosine production were chosen to minimize interference by the particular metalloporphyrin used. Experiments using HPA as a nitration target (FIG. 7) contained 8 mM HPA in either 0.1 M potassium phosphate, pH 7.4 or 0.1 M sodium borate, pH 9.1.

Row | Structure (SMILES) | average efficiency of nitration catalysis [1] | survival of cultured motor neurons deprived of growth factors [2] | long-term motor neuron survival compared with BDNF ([2]; 0.1 μM and 1.0 μM) | maximal cell survival ([2]; 0.1 μM, 24 h, in place of BDNF, 100% = BDNF 100 pg/ml) | cell survival ([2]; 100 μM, 24 h, in place of BDNF) | dose-response for survival of motor neurons at 72 h ([2]; 72 h) | lowest concentration at which some protection is seen ([2]; added in place of BDNF, survival at 24 h) | cell survival at day 16 ([2]; lower dose (0.1 μM), long-term culture) | toxicity to motor neurons ([2]; relatively high concentrations, 100 μM) | effect of HOCl on the MP (50 μM HOCl) | oxidation by H2O2 (0.5 mM H2O2, 20 min) | enhancement of nitration yield at pH 9.1 ([3]; 8 mM HPA, 10 μM MP, 0.1 M sodium borate pH 9.1, versus non-catalyzed) | effect of ascorbate and GSH on nitration enhancement ([3]; concentrations which eliminated non-catalyzed nitration) | ascorbate concentration giving complete inhibition of nitration enhancement ([3]; dose-dependent, not shown) | effect of serum on nitration enhancement ([3]; fresh human serum 1:10 added prior to peroxynitrite)
1 | O=C(O)c1ccc(-c2c3nc(c(-c4ccc(C(=O)O)cc4)c4ccc([n-]4)c(-c4ccc(C(=O)O)cc4)c4nc(c(-c5ccc(C(=O)O)cc5)c5ccc2[n-]5)C=C4)C=C3)cc1.[Fe+2] [FeTCPP, Iron (III) meso 5,10,15,20-tetrakis-(4-carboxy-phenyl) porphyrin] | 22.7% | prolong survival of cultured motor neurons | as effective as BDNF | 90% | 90% | virtually identical to the 24 h survival results | 0.01 µM | 90% | not toxic | – | – | – | – | – | –
2 | C[n+]1ccc(-c2c3nc(c(-c4cc[n+](C)cc4)c4ccc([n-]4)c(-c4cc[n+](C)cc4)c4nc(c(-c5cc[n+](C)cc5)c5ccc2[n-]5)C=C4)C=C3)cc1.[Cl-].[Cl-].[Cl-].[Cl-].[Cl-].[Mn+3] [MnTMPyP, Manganese (III) meso-tetra-(N-methyl-4-pyridyl)-porphine chloride] | – | – | – | – | – | – | – | – | – | appeared to destroy the metal-pyrrole center | did not appear to oxidize | 12.3 fold | much less inhibitory effect | 1.5 mM | much less effect
